This is an account of results in patent EP0666077A1, “ANTI-MRSA COMPOSITION” (MEIJI SEIKA KABUSHIKI KAISHA, priority 1993, dated 1995).

Values after ≈ are worked out from the molar mass of the structure shown.

For assay [1], the system named is S. aureus (MRSA) -395. In words: Anti-bacterial activity test 1: minimum growth inhibiting concentration (MIC). In kind it is cell-based. To be noted: Staphylococcus aureus, strain -395 (PRC series), read-out: Anti-bacterial activity against MRSA MIC. The protocol: (§1) Minimum growth inhibiting concentration (MIC) of the compound represented by the general formula (I) was determined against some typical MRSA strains.

The subject of assay [2] is S. aureus (MRSA) PRC-376. Described as above. In kind it is cell-based. The settings on record: Staphylococcus aureus, strain PRC-376, read-out: Anti-bacterial activity against MRSA MIC. The protocol: as §1
Assay [3] has as its system S. aureus (MRSA) -400. The assay is described as above. In kind it is cell-based. The settings on record: Staphylococcus aureus, strain -400 (PRC series), read-out: Anti-bacterial activity against MRSA MIC. The protocol: as §1
Assay [4] concerns S. aureus (MRSA) -390. The description is as above. In kind it is cell-based. To be noted: Staphylococcus aureus, strain -390 (PRC series), read-out: Anti-bacterial activity against MRSA MIC. As for the experimental part: as §1
The test system of assay [5] is S. aureus (MRSA) -389. The assay is described as above. To be noted: Staphylococcus aureus, strain -389 (PRC series), read-out: Anti-bacterial activity against MRSA MIC. The assay is classed as cell-based. The protocol: as §1
The test system of assay [6] is S. aureus (MRSA) -385. Described as above. The settings on record: Staphylococcus aureus, strain -385 (PRC series), read-out: Anti-bacterial activity against MRSA MIC. In kind it is cell-based. The protocol: as §1
The test system of assay [7] is S. aureus (MRSA) -381. Described as above. In kind it is cell-based. The settings on record: Staphylococcus aureus, strain -381 (PRC series), read-out: Anti-bacterial activity against MRSA MIC. As for the experimental part:
as §1

Assay [8] has as its system methicillin resistant Staphylococcus aureus (TY-5548, higher resistant bacterium). In words: Anti-bacterial activity test 4: propagation under cup with dust adsorbing oil on agar plate. The assay is classed as cell-based. The settings on record: dust adsorbing oil incorporated with 0.1% of compound; 100 µl in cup; 4°C overnight, then 37°C for 24 hours. As for the experimental part:
Anti-MRSA activity was afforded to a dust adsorbing oil for a dust control mop as described below.
Only non-volatile ingredients were recovered from a dust adsorbing oil for a mop by spraying (manufactured by Yamazaki Sangyo), and incorporated with 0.1% of Compound (V).
A 200 µl of a suspension containing methicillin resistant Staphylococcus aureus (TY-5548, higher resistant bacterium) in a level of 1 x 10⁵ - 10⁴ cells/ml was smeared on a plate count agar, on which stainless steel cups having a diameter of 12 mm were placed to add 100 µl of the oil solution prepared above. The plate thus having inoculated the bacterium was left standing at 4°C overnight and then cultured at 37°C for 24 hours. The propagation of the bacterium under the cup was evaluated.

In assay [9] the test system is methicillin (DMPPC) resistant Staphylococcus aureus TY-5548. In words: Anti-bacterial activity test 2: viable cell count on processed cotton cloth. In kind it is cell-based. To be noted: stated for the test as a whole (TY-5548 and TY-5552). As for the experimental part:
A cotton cloth was subjected to anti-bacterial processing with the compound of the general formula (I). The processing was carried out by applying a solution containing 0.05% of the compound of the general formula (I) and 1% of an organic silicone (fiber finish, Miki Riken) on the cotton cloth with the padding method. A cotton cloth (30 cm x 40 cm) was padded so that the pick-up was 70%, dried with hot air at 110°C for 3 minutes and further cured at 170°C for 1 minute. The anti-bacterial effect of the cotton cloth subjected to the anti-bacterial processing was evaluated with methicillin (DMPPC) resistant Staphylococcus aureus by the following method. The strains were selected on the basis of their resistances, and TY-5548 was selected as a higher resistant strain and TY-5552 as a lower resistant strain.
A 0.2 g sample of the cotton cloth was weighed, placed in a screw capped 30 ml vial and sterilized under pressure. The test strains had been pre-cultured and diluted with nutrient broth for inoculation to 5 - 30 x 10⁵ cells/ml. This culture medium was uniformly inoculated at an amount of 200 µl with a micropipette to the sample cloth, which was then incubated in an incubator at 37°C for 18 hours. […] The colonies grown were counted to calculate the viable cells in the sample piece.

Assay [10] relates to TY-5548, higher resistant bacterium. In words: Anti-bacterial activity test 5: viable cell count on paint film. In kind it is cell-based, Staphylococcus aureus. The settings on record: paint film with 0.1% of compound. From the text: The compound of the general formula (I) was blended with a paint on the assumption that the paint is used around the medical facilities like in the case of Anti-bacterial activity test 3.
With an oil paint (manufactured by Shinto Toryo) 0.1% of the compound of the general formula (I) was mixed, and an appropriate dilution with thinner was spread over a stainless steel plate having a size of 3 cm x 3 cm and air-dried. The sample on which the film had been formed was sterilized with an alcohol and dried. The sample plate was placed in a glass dish, inoculated with 200 µl of the inoculation medium in Anti-bacterial activity test 3 (TY-5548, higher resistant bacterium) over the surface of the film and incubated at 37°C for 18 hours. After the incubation, 20 ml of a sterile physiological saline buffer was added to the medium to disperse the viable cells into the medium, and then the viable cells on the test piece were calculated in the same manner as in Anti-bacterial activity test 2.

`Clc1ccccc1C(Cn1ccnc1)OCc1ccccc1` (centres unmarked) [o-Cl, H, H, H, 1-[2-benzyloxy-2-(2-chlorophenyl)-ethyl]imidazole]: the minimum inhibitory concentration (MIC) (as a rule, the lowest concentration found to suppress growth) in assay [1] is 100 mg/L (≈ 320 µM); in assay [2], 100 mg/L (≈ 320 µM); in [3], 50 mg/L (≈ 160 µM); in [4], 100 mg/L (≈ 320 µM); in assay [5], 100 mg/L (≈ 320 µM); in assay [6], 100 mg/L (≈ 320 µM). In addition, the minimum inhibitory concentration (MIC) in assay [7] worked out at 50 mg/L (≈ 160 µM).

Turning to `Clc1ccccc1COC(Cn1ccnc1)c1ccccc1Cl` (centres unmarked) [o-Cl, H, o-Cl, H, 1-[2-(2-chlorobenzyloxy)-2-(2-chlorophenyl)-ethyl]imidazole], the minimal inhibitory concentration (MIC) in assay [1] amounted to 25 mg/L (≈ 72 µM); in [2], 25 mg/L (≈ 72 µM); in assay [3] it was 25 mg/L (≈ 72 µM); in assay [4] it was 25 mg/L (≈ 72 µM); in assay [5], 50 mg/L (≈ 144 µM); in [6], 25 mg/L (≈ 72 µM). The MIC in assay [7] stood at 25 mg/L (≈ 72 µM).

As for `Clc1ccc(COC(Cn2ccnc2)c2ccccc2Cl)cc1` (centres unmarked) [o-Cl, H, p-Cl, H, 1-[2-(4-chlorobenzyloxy)-2-(2-chlorophenyl)-ethyl]imidazole], the minimum inhibitory concentration (MIC) amounted to 25 mg/L (≈ 72 µM) in assay [1]; 25 mg/L (≈ 72 µM) in [2]; 12.5 mg/L (≈ 36 µM) in assay [3]; 25 mg/L (≈ 72 µM) in [4]; 25 mg/L (≈ 72 µM) in assay [5]; 25 mg/L (≈ 72 µM) in assay [6]. Also, the minimum inhibitory concentration (MIC) in [7] was 12.5 mg/L (≈ 36 µM). Besides, in [8], the “propagation of the bacterium under the cup” value is listed as “no propagation was observed”. Besides, the “cell reducing rate of the inoculated cells” value in assay [9] and in assay [10] was at least 99.9% in each case.

Regarding `Clc1ccc(C(Cn2ccnc2)OCc2ccccc2Cl)cc1` (centres unmarked) [p-Cl, H, o-Cl, H, 1-[2-(2-chlorobenzyloxy)-2-(4-chlorophenyl)-ethyl]imidazole], the MIC is 50 mg/L (≈ 144 µM) in [1]; 50 mg/L (≈ 144 µM) in assay [2]; 25 mg/L (≈ 72 µM) in assay [3]; 50 mg/L (≈ 144 µM) in assay [4]; 50 mg/L (≈ 144 µM) in [5]; 50 mg/L (≈ 144 µM) in assay [6]. The minimal inhibitory concentration (MIC) in assay [7] came out at 25 mg/L (≈ 72 µM).

Turning to `Clc1ccc(COC(Cn2ccnc2)c2ccc(Cl)cc2)cc1` (centres unmarked) [p-Cl, H, p-Cl, H, 1-[2-(4-chlorobenzyloxy)-2-(4-chlorophenyl)-ethyl]imidazole], the MIC in assay [1] came to 50 mg/L (≈ 144 µM); in [2] it was 50 mg/L (≈ 144 µM); in assay [3], 25 mg/L (≈ 72 µM); in assay [4], 50 mg/L (≈ 144 µM); in assay [5], 50 mg/L (≈ 144 µM); in assay [6], 50 mg/L (≈ 144 µM). In assay [7], the minimal inhibitory concentration (MIC) was 25 mg/L (≈ 72 µM).
